# Like-named read-outs stand apart in the source and are kept apart here.
# Tests used:
# Type in all cases: in vivo
# [1] = system: adults of Tetranychus cinnabarinus; assay: Acaricidal activity against adults in greenhouse (spray on broadbean shoots, mortality after 72 hrs); conditions: for control against adults of Tetranychus cinnabarinus: spray, 72 hrs; for mortality at 0.625 µg/mL / mortality at 1.25 µg/mL / mortality at 2.5 µg/mL / mortality at 5 µg/mL / mortality at 10 µg/mL / mortality at 40 µg/mL: Tetranychus cinnabarinus, read-out: mortalities of adults of Tetranychus cinnabarinus (%)
# Method: (§1) The activity determinations of compounds of the present invention against adults, nymphs and eggs of Tetranychus cinnabarinus were carried out in greenhouse by the following procedures:
# The activity determination against adults in greenhouse: the compounds were weighed and dissolved in acetone to obtain mother liquid, and then the mother liquid was diluted to required concentration with placed running water containing 0.1% of Tween 80. Broadbean shoots with two true leaves were used to inoculate adults of Tetranychus cinnabarinus which were counted, spraying treatment was performed by portable sprayer (DeVilbiss Atomizer M163), 3 replicates were set for each treatment. After treatment the broadbean shoots were maintained in standard observation room. Scores were conducted and mortalities were calculated after 72 hrs.
# [2] = system: eggs of Tetranychus cinnabarinus; assay: Activity against eggs in greenhouse (hatching inhibition rate); conditions: for hatching inhibition rate against eggs of Tetranychus cinnabarinus: dose 10 mg/L; for inhibition at 0.625 µg/mL / inhibition at 2.5 µg/mL / inhibition at 10 µg/mL: Tetranychus cinnabarinus, read-out: hatching inhibition rate against eggs (%)
# Method: as §1
# The activity determination against eggs in greenhouse: Broadbean shoots in pot with one true leaf retained were taken, ten healthy female adults of Tetranychus cinnabarinus were inoculated to the leaves, the adults were removed after 24 hrs and the eggs were counted and then sprayed. The treatment of test compounds and spaying method were the same as that of the activity determination in greenhouse against adults. Once eggs of blank control were all hatched after 5 days, unhatched eggs in each treatment were investigated and the hatching inhibition rate were calculated.
# [3] = system: nymphs of Tetranychus cinnabarinus; assay: Acaricidal activity against nymphs in greenhouse (spray, mortality after 72 hrs)
# Method: as §1
# The activity determination against nymphs in greenhouse: broadbean shoots with two true leaves in pot were taken, ten healthy female adults of Tetranychus cinnabarinus were inoculated to the leaves, the adults were removed after 24 hrs and the eggs were cultivated into nymphs after 7-10 days. The nymphs were counted and then sprayed. 3 replicates were set for each treatment. And then were maintained in standard observation room. Scores were conducted and mortalities were calculated after 72 hrs.
# citrus red mite = assay: Field trial against citrus red mite (Guilin, China); conditions: 48 mg/L (24% SC)
# Method: Field Trial Against Citrus Red Mite (Guilin, China)
# The trial was carried out in a 2-year-old Shatang orange orchard in Chaotian town lingchuan county guilin city, trifoliate orange trees were selected as stocks, the intervals between two plants was 1.5×2.5 m, the average height was 1.45 m and the crown width was 1.30 m. Two trees were selected in each plot, with random arrangement and 4 replications. Compound 9 (15% SC) was set at two different doses (100 mg/L and 25 mg/L), and spirodiclofen (24% SC) was set at one dose (48 mg/L). Matabi Supergreen 16 Knapsack Sprayer 16 Liter was used to spray evenly with 2 L of spaying volume for each plant. The plants were treated once on 30 Oct. 2009, at that time, adults, nymphs and eggs of citrus red mite all existed, with adults/eggs=1/1.27. During the day the plants were treated, and the weather was good with the average temperature at 23° C. The first three days after treatment were all clear days. The number of mites was investigated before treatment and on the 1st, 3rd, 10th, 15th, 20th and 30th day after treatment respectively. Two trees of each plot were investigated according to the five directions of the tree crown (east, south, west, north and central), 5 leaves in each direction were investigated to calculate the number of living mites, with 50 leaves each plot. The decline rate of mite population and corrected efficacy were calculated according to formulas below: The decline rate of mite population(%)=[(the average number of mite on each leaf before treatment−the average number of mite on each leaf after treatment)/the average number of mite on each leaf before treatment]×100. Corrected efficacy(%)=[(the decline rate of mite population in treated area−the decline rate of mite population in untreated area)/(100−the decline rate of mite population in untreated area)]×100.
compound,measurement,setting,value
CO/C=C(/C(=O)OC)c1ccccc1COc1cc(C(F)(F)F)nc(Nc2ccccc2F)n1 [Compound 2],control against adults of Tetranychus cinnabarinus,[1]; dose 10 mg/L,100%
same,control against adults of Tetranychus cinnabarinus,[1]; dose 40 mg/L,100%
same,control against adults of Tetranychus cinnabarinus,[1]; dose 100 mg/L,100%
CO/C=C(/C(=O)OC)c1ccccc1COc1cc(C(F)(F)F)nc(Nc2cccc(C)c2)n1 [Compound 6],control against adults of Tetranychus cinnabarinus,[1]; dose 40 mg/L,100%
same,control against adults of Tetranychus cinnabarinus,[1]; dose 100 mg/L,100%
CO/C=C(/C(=O)OC)c1ccccc1COc1cc(C(F)(F)F)nc(Nc2ccc(F)cc2F)n1 [Compound 8],hatching inhibition rate against eggs (%),"[2]; 0.625 mg/L, Table 8",25%
same,hatching inhibition rate against eggs (%),"[2]; 2.5 mg/L, Table 8",90%
same,hatching inhibition rate against eggs (%),"[2]; 10 mg/L, Table 8",100%
same,hatching inhibition rate against eggs of Tetranychus cinnabarinus,[2],100%
same,control against nymphs of Tetranychus cinnabarinus,[3]; dose 0.63 mg/L,more than 75%
same,control against nymphs of Tetranychus cinnabarinus,[3]; dose 2.5 mg/L,more than 95%
same,control against adults of Tetranychus cinnabarinus,[1]; dose 5 mg/L,100%
same,control against adults of Tetranychus cinnabarinus,[1]; dose 10 mg/L,100%
same,control against adults of Tetranychus cinnabarinus,[1]; dose 40 mg/L,100%
same,control against adults of Tetranychus cinnabarinus,[1]; dose 100 mg/L,100%
CO/C=C(/C(=O)OC)c1ccccc1COc1cc(C(F)(F)F)nc(Nc2ccc(Cl)cc2F)n1 [Compound 12],control against adults of Tetranychus cinnabarinus,[1]; dose 5 mg/L,100%
same,control against adults of Tetranychus cinnabarinus,[1]; dose 10 mg/L,100%
same,control against adults of Tetranychus cinnabarinus,[1]; dose 40 mg/L,100%
same,control against adults of Tetranychus cinnabarinus,[1]; dose 100 mg/L,100%
CO/C=C(/C(=O)OC)c1ccccc1COc1cc(C(F)(F)F)nc(Nc2ccc(F)c(Cl)c2)n1 [Compound 13],control against adults of Tetranychus cinnabarinus,[1]; dose 100 mg/L,100%
CO/C=C(/C(=O)OC)c1ccccc1COc1cc(C(F)(F)F)nc(Nc2ccc(F)c(F)c2F)n1 [Compound 15],hatching inhibition rate against eggs of Tetranychus cinnabarinus,[2],100%
same,control against nymphs of Tetranychus cinnabarinus,[3]; dose 0.63 mg/L,100%
same,control against nymphs of Tetranychus cinnabarinus,[3]; dose 2.5 mg/L,100%
same,control against adults of Tetranychus cinnabarinus,[1]; dose 0.31 mg/L,more than 75%
same,control against adults of Tetranychus cinnabarinus,[1]; dose 0.625 mg/L,95%
same,control against adults of Tetranychus cinnabarinus,[1]; dose 5 mg/L,100%
same,control against adults of Tetranychus cinnabarinus,[1]; dose 10 mg/L,100%
same,control against adults of Tetranychus cinnabarinus,[1]; dose 40 mg/L,100%
same,control against adults of Tetranychus cinnabarinus,[1]; dose 100 mg/L,100%
CO/C=C(/C(=O)OC)c1ccccc1COc1cc(C(F)(F)F)nc(Nc2ccc(Cl)c(Cl)c2Cl)n1 [Compound 16],hatching inhibition rate against eggs of Tetranychus cinnabarinus,[2],100%
same,control against adults of Tetranychus cinnabarinus,[1]; dose 5 mg/L,100%
same,control against adults of Tetranychus cinnabarinus,[1]; dose 10 mg/L,100%
same,control against adults of Tetranychus cinnabarinus,[1]; dose 40 mg/L,100%
same,control against adults of Tetranychus cinnabarinus,[1]; dose 100 mg/L,100%
CO/C=C(/C(=O)OC)c1ccccc1COc1cc(C(F)(F)F)nc(Nc2ccc(Cl)c(C)c2Cl)n1 [Compound 17],control against adults of Tetranychus cinnabarinus,[1]; dose 5 mg/L,100%
same,control against adults of Tetranychus cinnabarinus,[1]; dose 10 mg/L,100%
same,control against adults of Tetranychus cinnabarinus,[1]; dose 40 mg/L,100%
same,control against adults of Tetranychus cinnabarinus,[1]; dose 100 mg/L,100%
CO/C=C(/C(=O)OC)c1ccccc1COc1cc(C(F)(F)F)nc(Nc2cc(Cl)ccc2Cl)n1 [Compound 18],control against adults of Tetranychus cinnabarinus,[1]; dose 40 mg/L,100%
same,control against adults of Tetranychus cinnabarinus,[1]; dose 100 mg/L,100%
CO/C=C(/C(=O)OC)c1ccccc1COc1nc(Nc2ccc(F)cc2F)nc(C(F)(F)F)c1C [Compound 79],control against adults of Tetranychus cinnabarinus,[1]; dose 10 mg/L,100%
same,control against adults of Tetranychus cinnabarinus,[1]; dose 40 mg/L,100%
same,control against adults of Tetranychus cinnabarinus,[1]; dose 100 mg/L,100%
CO/C=C(/C(=O)OC)c1ccccc1COc1nc(Nc2ccc(F)c(F)c2F)nc(C(F)(F)F)c1C [Compound 80],control against adults of Tetranychus cinnabarinus,[1]; dose 40 mg/L,100%
same,control against adults of Tetranychus cinnabarinus,[1]; dose 100 mg/L,100%
CO/C=C(/C(=O)OC)c1ccccc1COc1nc(Nc2ccccc2Cl)nc(C(F)(F)F)c1C [Compound 82],control against adults of Tetranychus cinnabarinus,[1]; dose 100 mg/L,100%
CO/C=C(/C(=O)OC)c1ccccc1COc1nc(Nc2ccc(Cl)cc2)nc(C(F)(F)F)c1C [Compound 83],control against adults of Tetranychus cinnabarinus,[1]; dose 100 mg/L,100%
CO/C=C(/C(=O)OC)c1ccccc1COc1nc(Nc2ccccc2)nc(C(F)(F)F)c1C [Compound 84],control against adults of Tetranychus cinnabarinus,[1]; dose 100 mg/L,100%
CO/C=C(/C(=O)OC)c1ccccc1COc1nc(Nc2ccccc2)nc(C(F)(F)F)c1Cl [Compound 85],control against adults of Tetranychus cinnabarinus,[1]; dose 100 mg/L,100%
"CO/C=C(/C(=O)OC)c1ccccc1COc1cc(C(F)(F)F)nc(Nc2ccccc2)n1 [Contrast A, reference compound]",inhibition at 0.625 µg/mL,"[2]; 0.625 mg/L, Table 8",0%
same,inhibition at 2.5 µg/mL,"[2]; 2.5 mg/L, Table 8",10%
same,inhibition at 10 µg/mL,"[2]; 10 mg/L, Table 8",100%
same,mortality at 0.625 µg/mL,"[1]; 0.625 mg/L, Table 7",0%
same,mortality at 1.25 µg/mL,"[1]; 1.25 mg/L, Table 7",10%
same,mortality at 2.5 µg/mL,"[1]; 2.5 mg/L, Table 7",30%
same,mortality at 5 µg/mL,"[1]; 5 mg/L, Table 7",60%
same,mortality at 10 µg/mL,"[1]; 10 mg/L, Table 7",90%
same,mortality at 40 µg/mL,"[1]; 40 mg/L, Table 7",100%
"CO/C=C(/C(=O)OC)c1ccccc1COc1cc(C(F)(F)F)nc(N(C)C)n1 [Contrast B, reference compound]",mortality at 10 µg/mL,"[1]; 10 mg/L, Table 7",0%
same,mortality at 40 µg/mL,"[1]; 40 mg/L, Table 7",0%
CO/C=C(/C(=O)OC)c1ccccc1COc1cc(C(F)(F)F)nc(Nc2cccc(Cl)c2Cl)n1 [Contrast C],inhibition at 0.625 µg/mL,"[2]; 0.625 mg/L, Table 8",0%
same,inhibition at 2.5 µg/mL,"[2]; 2.5 mg/L, Table 8",10%
same,inhibition at 10 µg/mL,"[2]; 10 mg/L, Table 8",100%
"CO/C=C(/C(=O)OC)c1ccccc1COc1cc(C(F)(F)F)nc(OC(C)C)n1 [Fluacrypyrim, reference compound]",inhibition at 0.625 µg/mL,[2],0%
same,inhibition at 2.5 µg/mL,[2],10%
same,inhibition at 10 µg/mL,[2],95%
same,mortality at 0.625 µg/mL,[1],0%
same,mortality at 1.25 µg/mL,[1],30%
same,mortality at 2.5 µg/mL,[1],65%
same,mortality at 5 µg/mL,[1],95%
same,mortality at 10 µg/mL,[1],100%
same,mortality at 40 µg/mL,[1],100%
"CCC(C)(C)C(=O)OC1=C(c2ccc(Cl)cc2Cl)C(=O)OC12CCCCC2 [Spirodiclofen, reference compound]",hatching inhibition rate against eggs (%),"[2]; 0.625 mg/L, Table 8",0%
same,hatching inhibition rate against eggs (%),"[2]; 2.5 mg/L, Table 8",70%
same,hatching inhibition rate against eggs (%),"[2]; 10 mg/L, Table 8",100%
same,Corrected efficacy (%),citrus red mite; the 1st day after treatment,59%
same,Corrected efficacy (%),citrus red mite; the 3rd day after treatment,72%
same,Corrected efficacy (%),citrus red mite; the 10th day after treatment,75%
same,Corrected efficacy (%),citrus red mite; the 15th day after treatment,76%
same,Corrected efficacy (%),citrus red mite; the 20th day after treatment,83%
same,Corrected efficacy (%),citrus red mite; the 30th day after treatment,82%
